Measured values: ChEMBL document CHEMBL1151722, “Sesquiterpenoids and phenylpropanoids from Chloranthus serratus” (2008)
Values after ≈ are worked out from the molar mass of the structure shown.

Each compound was assayed on Helicobacter pylori (assay: Antimicrobial activity against Helicobacter pylori-SS1).
Assay type: functional

Structure (SMILES)	MIC
CC1=C2C(=O)c3c(C)coc3C[C@@]2(C)[C@H](O)CC1=O [CHLORANTENE D]	25 µg/mL (≈ 96 µM)
C=C1CCC[C@]2(C)CC[C@@](O)(C(C)C)C(=O)[C@@H]12 [CHLORANTENE G]	25 µg/mL (≈ 106 µM)
C=C1CC/C=C(\C)C(=O)c2occ(C)c2C(=O)C1 [CHLORANTENE E]	25 µg/mL (≈ 102 µM)
C=C[C@]1(C)C(=O)c2occ(C)c2C(=O)[C@H]1C(=C)C [CHLORANTENE F]	25 µg/mL (≈ 102 µM)
